Experimental data reported in paper PMC12772312, “The MAB_3513c gene plays a key role in intrinsic resistance of Mycobacterium abscessus to isoniazid and ethionamide” (Microbiology Spectrum, 2025).

B1: Mycobacterium abscessus NADH pyrophosphatase NudC (MAB_3513c), wild type (enzyme)
chain: MTFRLRNIPLLSRVGLDRADELRSNPEELAKGWAEAGLITLDVRGRVNIVDGQVVIEDAARIGDQPPEHAVFLGRIPGGRHVWAVRADLDEDSAPLLDLRRSGQLFDDTSAALLATAMAMLAWHDNAGYSPVDGSPTIPAKGGWVRVNSATGQEEFPRTDPAIICLVHDGGDRAVLGRQKFWPERMFSLLAGFVEAGESLEACVAREVAEEVGLTVTDVQYLGSQPWPFPRSIMLGFHAIGDPSQPFAFNDGEIAEADWFTRAEVRSALEAGDWTTASDSRLMLPGSISIAREIVESWAYAGEEPPAGRP
notes: NADH pyrophosphatase NudC of Mycobacterium abscessus, gene MAB_3513c (nudC); The strain used in the study is M. abscessus subsp. abscessus GZ002 (genome GenBank CP034181); also called Wt NudC; source: E. coli BL21 (λDE3), pET-28a, purified (his-tag protein purification kit)

What was measured:
[1] = target: T1, NudC (NudC^Mab; MAB_3513c) (Mycobacteroides abscessus, UniProt A0A0U1C370); experiment: HPLC/MS of metabolite extracts, wild type versus nudC deletion strain; assay type: cell-based; settings: adduct formed in cells from ethionamide (256 ug/mL, 3 h, 37 C); no purified enzyme assay
T1 construct: native full-length protein in M. abscessus cells, compared with isogenic nudC deletion; functional homodimer

[2] = target: the molecule itself; experiment: SEC; HiLoad 16/600 Superdex 75 pg, 20 mM Tris-HCl (pH 7.5), 150 mM NaCl, 1 mM 1,4-dithiothreitol, 4°C, 1 mL/min; retention times compared to molecular weight standards

Molecule | HPLC/MS of metabolite extracts, wild type versus nudC deletion strain [1] | stoichiometry N [2]
CCc1cc(C(=O)C2C=CN([C@@H]3O[C@H](COP(=O)(O)OP(=O)(O)OC[C@H]4O[C@@H](n5cnc6c(N)ncnc65)[C@H](O)[C@@H]4O)[C@@H](O)[C@H]3O)C=C2C(N)=O)ccn1 (some centres unmarked) [ETH-NAD adduct] | nudC encodes a functional NudC that hydrolyzes ETH-NAD adduct | –
B1 | – | 2
